Results taken from ChEMBL document CHEMBL1201861, “Genomics of Drug Sensitity in Cancer screening data, Wellcome Trust Sanger Institute”.
pIC50: −log10 of the molar value.

Legend:
Test in all cases: cells
Type in all cases: functional, cell-based, Homo sapiens
[1] = system: D-542MG
Description: SANGER: Inhibition of human D-542MG cell growth in a cell viability assay.

[2] = system: A204;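 note: growth inhibition of human A204 cells, read out with a cell viability assay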
Description: SANGER: Inhibition of human A204 cell growth in a cell viability assay.

[3] = system: KYSE-510;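 note: cell viability readout used to measure how strongly growth of the cell line is suppressed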
Description: SANGER: Inhibition of human KYSE-510 cell growth in a cell viability assay.

[4] = system: ASPC1;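 note: growth inhibition of AsPC-1 cells, read out with a cell viability assay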
Description: SANGER: Inhibition of human AsPC-1 cell growth in a cell viability assay.

[5] = system: KYSE-270;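 note: cell growth inhibition measured with a viability assay in the human KYSE-270 line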
Description: SANGER: Inhibition of human KYSE-270 cell growth in a cell viability assay.

[6] = system: ME-180;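 note: cell viability assay measuring growth inhibition of ME-180 cells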
Description: SANGER: Inhibition of human ME-180 cell growth in a cell viability assay.

[7] = system: VMRC-RCZ;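 note: growth inhibition measured with a cell viability assay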
Description: SANGER: Inhibition of human VMRC-RCZ cell growth in a cell viability assay.

[8] = system: HuP-T3;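 note: HuP-T3 cell growth inhibition, read out with a cell viability assay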
Description: SANGER: Inhibition of human HuP-T3 cell growth in a cell viability assay.

[9] = system: HCC1806;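 note: growth inhibition of the cancer cell line, determined with a cell viability assay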
Description: SANGER: Inhibition of human HCC1806 cell growth in a cell viability assay.

[10] = system: SAS;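 note: growth inhibition of SAS cells, read out with a cell viability assay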
Description: SANGER: Inhibition of human SAS cell growth in a cell viability assay.

[11] = system: NCI-H2291
Description: SANGER: Inhibition of human NCI-H2291 cell growth in a cell viability assay.

[12] = system: FTC-133
[13] = system: EGI-1;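 note: cell viability readout used to gauge growth inhibition of EGI-1 cells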
Description: SANGER: Inhibition of human EGI-1 cell growth in a cell viability assay.

[14] = system: NCI-H1623;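 note: cell viability assay used as the read-out for growth inhibition of NCI-H1623 cells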
Description: SANGER: Inhibition of human NCI-H1623 cell growth in a cell viability assay.

[15] = system: SW626;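 note: growth inhibition of SW626 cells, measured with a cell viability assay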
Description: SANGER: Inhibition of human SW626 cell growth in a cell viability assay.

[16] = system: A-375;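 note: growth inhibition of A375 cells, read out with a cell viability assay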
Description: SANGER: Inhibition of human A375 cell growth in a cell viability assay.

[17] = system: NCI-H2347;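 note: growth inhibition of the cell line, read out with a cell viability assay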
Description: SANGER: Inhibition of human NCI-H2347 cell growth in a cell viability assay.

[18] = system: AU565;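 note: cell viability assay measuring growth inhibition of human AU565 cells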
Description: SANGER: Inhibition of human AU565 cell growth in a cell viability assay.

[19] = system: T-24;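 note: growth inhibition of T-24 cells, read out with a cell viability assay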
Description: SANGER: Inhibition of human T-24 cell growth in a cell viability assay.

[20] = system: Capan-2;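 note: Capan-2 cell growth inhibition, read out with a viability assay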
Description: SANGER: Inhibition of human Capan-2 cell growth in a cell viability assay.

[21] = system: C32;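 note: cell viability assay, with IC50 reflecting inhibition of C32 cell growth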
Description: SANGER: Inhibition of human C32 cell growth in a cell viability assay.

[22] = system: OE19;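 note: growth inhibition of OE19 cells, measured through a cell viability read-out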
Description: SANGER: Inhibition of human OE19 cell growth in a cell viability assay.

[23] = system: WM-115
Description: SANGER: Inhibition of human WM-115 cell growth in a cell viability assay.

[24] = system: DBTRG-05MG;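 note: cell viability assay measuring growth inhibition of human DBTRG-05MG cells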
Description: SANGER: Inhibition of human DBTRG-05MG cell growth in a cell viability assay.

[25] = system: PA-1;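 note: IC50 for suppression of PA-1 cell proliferation, determined with a cell viability read-out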
Description: SANGER: Inhibition of human PA-1 cell growth in a cell viability assay.

[26] = system: OAW-28;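 note: growth inhibition of OAW-28 cells, read out with a cell viability assay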
Description: SANGER: Inhibition of human OAW-28 cell growth in a cell viability assay.

[27] = system: CFPAC-1;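 note: cell viability readout used to gauge suppression of CFPAC-1 cell proliferation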
Description: SANGER: Inhibition of human CFPAC-1 cell growth in a cell viability assay.

[28] = system: MDA-MB-157
Description: SANGER: Inhibition of human MDA-MB-157 cell growth in a cell viability assay.

[29] = system: CAL-54;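 note: growth inhibition of CAL-54 cells, read out by a viability measurement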
Description: SANGER: Inhibition of human CAL-54 cell growth in a cell viability assay.

[30] = system: HN
Description: SANGER: Inhibition of human HN cell growth in a cell viability assay.

[31] = system: M059J;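 note: growth inhibition of M059J cells, read out with a cell viability assay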
Description: SANGER: Inhibition of human M059J cell growth in a cell viability assay.

[32] = system: MEL-JUSO;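 note: growth inhibition of human MEL-JUSO cells, read out with a cell viability assay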
Description: SANGER: Inhibition of human MEL-JUSO cell growth in a cell viability assay.

[33] = system: HCC1395;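 note: growth inhibition of HCC1395 cells, read out by a cell viability assay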
Description: SANGER: Inhibition of human HCC1395 cell growth in a cell viability assay.

[34] = system: UACC-62;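 note: growth inhibition of human UACC-62 cells, read out by a cell viability assay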
Description: SANGER: Inhibition of human UACC-62 cell growth in a cell viability assay.

[35] = system: SW948;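 note: growth inhibition of SW948 cells, read out with a cell viability assay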
Description: SANGER: Inhibition of human SW948 cell growth in a cell viability assay.

[36] = system: KU-19-19
Description: SANGER: Inhibition of human KU-19-19 cell growth in a cell viability assay.

[37] = system: NCI-H810;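 note: IC50 reflects inhibition of cancer cell line growth, read out with a cell viability assay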
Description: SANGER: Inhibition of human NCI-H810 cell growth in a cell viability assay.

[38] = system: COLO-678
Description: SANGER: Inhibition of human COLO-678 cell growth in a cell viability assay.

[39] = system: SiHa;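 note: Viability-based readout of growth inhibition in SiHa cells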
Description: SANGER: Inhibition of human SiHa cell growth in a cell viability assay.

[40] = system: SNU-423
Description: SANGER: Inhibition of human SNU-423 cell growth in a cell viability assay.

Cc1cn(-c2cc(NC(=O)c3ccc(C)c(Nc4nccc(-c5cccnc5)n4)c3)cc(C(F)(F)F)c2)cn1 [NILOTINIB] gave a pIC50 ([1]; Homo sapiens, D-542MG) of less than 5.70, a pIC50 ([2]; Homo sapiens, A204) of 5.80 and a pIC50 ([3]; Homo sapiens, KYSE-510) of less than 5.70. It also gave a pIC50 ([4]; Homo sapiens, ASPC1) of less than 5.70, a pIC50 ([5]; Homo sapiens, KYSE-270) of less than 5.70 and a pIC50 ([6]; Homo sapiens, ME-180) of less than 5.70. The pIC50 ([7]; Homo sapiens, VMRC-RCZ) was less than 5.70, the pIC50 ([8]; Homo sapiens, HuP-T3) was less than 5.70 and the pIC50 ([9]; Homo sapiens, HCC1806) was less than 5.70. It also gave a pIC50 ([10]; Homo sapiens, SAS) of less than 5.70, a pIC50 ([11]; Homo sapiens, NCI-H2291) of less than 5.70 and a pIC50 ([12]; Homo sapiens, FTC-133) of less than 5.70. It also gave a pIC50 ([13]; Homo sapiens, EGI-1) of less than 5.70, a pIC50 ([14]; Homo sapiens, NCI-H1623) of less than 5.70 and a pIC50 ([15]; Homo sapiens, SW626) of less than 5.70. For the same compound, the pIC50 ([16]; Homo sapiens, A-375) was less than 5.70, the pIC50 ([17]; Homo sapiens, NCI-H2347) was less than 5.70 and the pIC50 ([18]; Homo sapiens, AU565) was less than 5.70. The pIC50 ([19]; Homo sapiens, T-24) was less than 5.70, the pIC50 ([20]; Homo sapiens, Capan-2) was less than 5.70 and the pIC50 ([21]; Homo sapiens, C32) was less than 5.70. For the same compound, the pIC50 ([22]; Homo sapiens, OE19) was less than 5.70, the pIC50 ([23]; Homo sapiens, WM-115) was less than 5.70 and the pIC50 ([24]; Homo sapiens, DBTRG-05MG) was less than 5.70. It also gave a pIC50 ([25]; Homo sapiens, PA-1) of less than 5.70, a pIC50 ([26]; Homo sapiens, OAW-28) of less than 5.70 and a pIC50 ([27]; Homo sapiens, CFPAC-1) of less than 5.70. It also gave a pIC50 ([28]; Homo sapiens, MDA-MB-157) of less than 5.70, a pIC50 ([29]; Homo sapiens, CAL-54) of less than 5.70 and a pIC50 ([30]; Homo sapiens, HN) of less than 5.70. For the same compound, the pIC50 ([31]; Homo sapiens, M059J) was less than 5.70, the pIC50 ([32]; Homo sapiens, MEL-JUSO) was less than 5.70 and the pIC50 ([33]; Homo sapiens, HCC1395) was less than 5.70. The pIC50 ([34]; Homo sapiens, UACC-62) was less than 5.70, the pIC50 ([35]; Homo sapiens, SW948) was less than 5.70 and the pIC50 ([36]; Homo sapiens, KU-19-19) was less than 5.70. The pIC50 ([37]; Homo sapiens, NCI-H810) was less than 5.70, the pIC50 ([38]; Homo sapiens, COLO-678) was less than 5.70 and the pIC50 ([39]; Homo sapiens, SiHa) was less than 5.70. For the same compound, the pIC50 ([40]; Homo sapiens, SNU-423) was less than 5.70.

CC(C)CCN1c2nc(Nc3cc(F)c(O)c(F)c3)ncc2N(C)C(=O)C1C (stereo not given) was tested, and the pIC50 ([1]; Homo sapiens, D-542MG) was less than 5.30, the pIC50 ([2]; Homo sapiens, A204) was less than 5.30 and the pIC50 ([3]; Homo sapiens, KYSE-510) was 5.37. It also gave a pIC50 ([4]; Homo sapiens, ASPC1) of less than 5.30, a pIC50 ([5]; Homo sapiens, KYSE-270) of less than 5.30 and a pIC50 ([6]; Homo sapiens, ME-180) of 5.56. For the same compound, the pIC50 ([7]; Homo sapiens, VMRC-RCZ) was less than 5.30, the pIC50 ([8]; Homo sapiens, HuP-T3) was less than 5.30 and the pIC50 ([9]; Homo sapiens, HCC1806) was less than 5.30. The pIC50 ([10]; Homo sapiens, SAS) was less than 5.30, the pIC50 ([11]; Homo sapiens, NCI-H2291) was less than 5.30 and the pIC50 ([12]; Homo sapiens, FTC-133) was less than 5.30. For the same compound, the pIC50 ([13]; Homo sapiens, EGI-1) was less than 5.30, the pIC50 ([14]; Homo sapiens, NCI-H1623) was less than 5.30 and the pIC50 ([15]; Homo sapiens, SW626) was 5.31. It also gave a pIC50 ([16]; Homo sapiens, A-375) of 5.39, a pIC50 ([17]; Homo sapiens, NCI-H2347) of less than 5.30 and a pIC50 ([18]; Homo sapiens, AU565) of less than 5.30. For the same compound, the pIC50 ([19]; Homo sapiens, T-24) was less than 5.30, the pIC50 ([20]; Homo sapiens, Capan-2) was less than 5.30 and the pIC50 ([21]; Homo sapiens, C32) was 5.40. It also gave a pIC50 ([22]; Homo sapiens, OE19) of less than 5.30, a pIC50 ([23]; Homo sapiens, WM-115) of less than 5.30 and a pIC50 ([24]; Homo sapiens, DBTRG-05MG) of less than 5.30. For the same compound, the pIC50 ([25]; Homo sapiens, PA-1) was less than 5.30, the pIC50 ([26]; Homo sapiens, OAW-28) was less than 5.30 and the pIC50 ([27]; Homo sapiens, CFPAC-1) was less than 5.30. It also gave a pIC50 ([28]; Homo sapiens, MDA-MB-157) of 5.37, a pIC50 ([29]; Homo sapiens, CAL-54) of less than 5.30 and a pIC50 ([30]; Homo sapiens, HN) of 5.79. The pIC50 ([31]; Homo sapiens, M059J) was 5.43, the pIC50 ([32]; Homo sapiens, MEL-JUSO) was less than 5.30 and the pIC50 ([33]; Homo sapiens, HCC1395) was less than 5.30. It also gave a pIC50 ([34]; Homo sapiens, UACC-62) of less than 5.30, a pIC50 ([35]; Homo sapiens, SW948) of less than 5.30 and a pIC50 ([36]; Homo sapiens, KU-19-19) of 5.44. The pIC50 ([37]; Homo sapiens, NCI-H810) was 5.49, the pIC50 ([38]; Homo sapiens, COLO-678) was less than 5.30 and the pIC50 ([39]; Homo sapiens, SiHa) was less than 5.30. The pIC50 ([40]; Homo sapiens, SNU-423) was less than 5.30.

In the case of CISPLATIN, the pIC50 ([1]; d-542mg) was 5.49, the pIC50 ([2]; a204) was 4.19 and the pIC50 ([3]; kyse-510) was 5.47. For the same compound, the pIC50 ([4]; aspc1) was 4.68, the pIC50 ([5]; kyse-270) was 5.04 and the pIC50 ([6]; me-180) was 4.26. It also gave a pIC50 ([7]; vmrc-rcz) of 3.53, a pIC50 ([8]; hup-t3) of 4.27 and a pIC50 ([9]; hcc1806) of 5.14. The pIC50 ([10]; sas) was 4.73, the pIC50 ([11]; nci-h2291) was 3.34 and the pIC50 ([12]; ftc-133) was 5.32. It also gave a pIC50 ([13]; egi-1) of 4.95, a pIC50 ([14]; nci-h1623) of 4.33 and a pIC50 ([15]; sw626) of 4.48. The pIC50 ([16]; a-375) was 3.27, the pIC50 ([17]; nci-h2347) was 3.66 and the pIC50 ([18]; au565) was 4.28. It also gave a pIC50 ([19]; t-24) of 5.25, a pIC50 ([20]; capan-2) of 3.61 and a pIC50 ([21]; c32) of 5.20. The pIC50 ([22]; oe19) was 3.15, the pIC50 ([23]; wm-115) was 4.48 and the pIC50 ([24]; dbtrg-05mg) was 4.80. The pIC50 ([25]; pa-1) was 6.10, the pIC50 ([26]; oaw-28) was 4.64 and the pIC50 ([27]; cfpac-1) was 4.45. The pIC50 ([28]; mda-mb-157) was 3.54, the pIC50 ([29]; cal-54) was 4.91 and the pIC50 ([30]; hn) was 4.44. The pIC50 ([31]; m059j) was 4.98, the pIC50 ([32]; mel-juso) was 4.73 and the pIC50 ([33]; hcc1395) was 3.85. The pIC50 ([34]; uacc-62) was 4.91, the pIC50 ([35]; sw948) was 3.65 and the pIC50 ([36]; ku-19-19) was 5.00. It also gave a pIC50 ([37]; nci-h810) of 3.56, a pIC50 ([38]; colo-678) of 3.21 and a pIC50 ([39]; siha) of 4.77. For the same compound, the pIC50 ([40]; snu-423) was 3.96.
